Measured values published in US9655884B2, “Antiparasitic use of isoxazoline compounds” (Intervet Inc., priority 2013, dated 2017).

System: adult fleas (C. felis)
Experiment: In vitro membrane feeding exposure to assess flea reproduction
Set-up: species or system Ctenocephalides felis
Conditions: for Pupal Development Control / Larval Emergence: eggs of parent fleas fed 0.09 ng/mL in blood
Procedure: A membrane feeding method [Wade S E, Georgi J R. Survival and reproduction of artificially fed cat fleas, Ctenocephalides felis Bouché (Siphonaptera: Pulicidae). J Med Entomol 1988, 25: 186-190.] was modified to assess the impact of fluralaner exposure on flea reproduction. Defibrinated sheep blood was prepared in a series of dilutions with fluralaner to obtain concentrations between 50.0 and 0.09 ng/mL. These test solutions were prepared twice and each preparation was tested in duplicate resulting in a total of 4 replicates per concentration, along with a fluralaner negative solvent control (a solvent concentration equivalent to that of the highest concentrated fluralaner test solution) and an untreated control.
Unfed adult fleas (C. felis; 20 males and 20 females) were placed into a plastic unit that was then closed with a gauze lid. A grid inside the plastic unit divided the unit into 2 chambers, an upper chamber for flea feeding and a lower chamber for egg collection. Test or control blood preparations (2 ml) were placed in an artificial membrane closed glass tube that was then placed on the plastic unit as the food source. Feeding units were incubated (38° C. and 60% RH) for 10 days. Test and negative control blood preparations were freshly prepared and exchanged (on days 1, 3, 5, and 8) to permit continuous flea feeding. Fleas were transferred into fresh plastic units on Days 5 and 8 to facilitate egg collection. Collected eggs were mixed with flea nourishment medium and incubated (28° C. and 80% RH) in darkness for 22 (±3) days to enable flea development. Parameters recorded were flea survival, oviposition control, egg hatchability, pupa control, flea-emergence control and reproduction inhibition.

[1] = 0.09 ng/mL in blood, exposure day 3
[2] = 0.09 ng/mL in blood, exposure day 4
[3] = 0.09 ng/mL in blood, exposure day 5
[4] = 0.09 ng/mL in blood, exposure day 8
[5] = 0.09 ng/mL in blood, exposure day 9
[6] = 0.09 ng/mL in blood, exposure day 10
[7] = 0.19 ng/mL in blood, exposure day 3
[8] = 0.19 ng/mL in blood, exposure day 4
[9] = 0.19 ng/mL in blood, exposure day 5
[10] = 0.19 ng/mL in blood, exposure day 8
[11] = 0.19 ng/mL in blood, exposure day 9
[12] = 0.19 ng/mL in blood, exposure day 10
[13] = 0.39 ng/mL in blood, exposure day 3
[14] = 0.39 ng/mL in blood, exposure day 4
[15] = 0.39 ng/mL in blood, exposure day 5
[16] = 0.39 ng/mL in blood, exposure day 8
[17] = 0.39 ng/mL in blood, exposure day 9
[18] = 0.39 ng/mL in blood, exposure day 10
[19] = 0.78 ng/mL in blood, exposure day 3
[20] = 0.78 ng/mL in blood, exposure day 4
[21] = 0.78 ng/mL in blood, exposure day 5
[22] = 0.78 ng/mL in blood, exposure day 8
[23] = 0.78 ng/mL in blood, exposure day 9
[24] = 0.78 ng/mL in blood, exposure day 10
[25] = 1.56 ng/mL in blood, exposure day 3
[26] = 1.56 ng/mL in blood, exposure day 4
[27] = 1.56 ng/mL in blood, exposure day 5
[28] = 1.56 ng/mL in blood, exposure day 8
[29] = 1.56 ng/mL in blood, exposure day 9
[30] = 1.56 ng/mL in blood, exposure day 10
[31] = 3.13 ng/mL in blood, exposure day 3
[32] = 3.13 ng/mL in blood, exposure day 4
[33] = 3.13 ng/mL in blood, exposure day 5
[34] = 3.13 ng/mL in blood, exposure day 8
[35] = 3.13 ng/mL in blood, exposure day 9
[36] = 3.13 ng/mL in blood, exposure day 10
[37] = 6.25 ng/mL in blood, exposure day 3
[38] = 6.25 ng/mL in blood, exposure day 4
[39] = 6.25 ng/mL in blood, exposure day 5
[40] = 6.25 ng/mL in blood, exposure day 8
[41] = 6.25 ng/mL in blood, exposure day 9
[42] = 6.25 ng/mL in blood, exposure day 10
[43] = 12.5 ng/mL in blood, exposure day 3
[44] = 12.5 ng/mL in blood, exposure day 4
[45] = 12.5 ng/mL in blood, exposure day 5
[46] = 12.5 ng/mL in blood, exposure day 8
[47] = 12.5 ng/mL in blood, exposure day 9
[48] = 12.5 ng/mL in blood, exposure day 10
[49] = 25.0 ng/mL in blood, exposure day 3
[50] = 25.0 ng/mL in blood, exposure day 4
[51] = 25.0 ng/mL in blood, exposure day 5
[52] = 50.0 ng/mL in blood, exposure day 3
[53] = 50.0 ng/mL in blood, exposure day 4
[54] = 50.0 ng/mL in blood, exposure day 5

Cc1cc(C2=NOC(c3cc(Cl)cc(Cl)c3)(C(F)(F)F)C2)ccc1C(=O)NCC(=O)NCC(F)(F)F (stereo not shown) [fluralaner, 4-[5-(3,5-Dichlorophenyl)-5-trifluoromethyl-4,5-dihydroisoxazol-3-yl]-2-methyl-N-[(2,2,2-trifluoro-ethylcarbamoyl)-methyl]-benzamide]
Oviposition Control (0.09 ng/mL in blood, arithmetic mean of exposure days): 7.9%
Flea Survival (0.09 ng/mL in blood, exposure day 2): 100%
Flea Survival [1]: 100%
Oviposition Control [1]: 0%
Flea Survival [2]: 100%
Oviposition Control [2]: 11.3%
Flea Survival [3]: 100%
Oviposition Control [3]: 10.9%
Flea Survival [4]: 100%
Oviposition Control [4]: 16.7%
Flea Survival [5]: 100%
Oviposition Control [5]: 0.3%
Flea Survival [6]: 100%
Oviposition Control [6]: 8.1%
Oviposition Control (0.19 ng/mL in blood, arithmetic mean of exposure days): 9.2%
Flea Survival (0.19 ng/mL in blood, exposure day 2): 100%
Flea Survival [7]: 100%
Oviposition Control [7]: 0%
Flea Survival [8]: 100%
Oviposition Control [8]: 5.1%
Flea Survival [9]: 100%
Oviposition Control [9]: 21.0%
Flea Survival [10]: 100%
Oviposition Control [10]: 15.1%
Flea Survival [11]: 100%
Oviposition Control [11]: 0%
Flea Survival [12]: 100%
Oviposition Control [12]: 13.9%
Oviposition Control (0.39 ng/mL in blood, arithmetic mean of exposure days): 16.1%
Flea Survival (0.39 ng/mL in blood, exposure day 2): 100%
Flea Survival [13]: 100%
Oviposition Control [13]: 6.72%
Flea Survival [14]: 100%
Oviposition Control [14]: 22.8%
Flea Survival [15]: 100%
Oviposition Control [15]: 23.2%
Flea Survival [16]: 100%
Oviposition Control [16]: 23.8%
Flea Survival [17]: 100%
Oviposition Control [17]: 0%
Flea Survival [18]: 98.7%
Oviposition Control [18]: 20.3%
Oviposition Control (0.78 ng/mL in blood, arithmetic mean of exposure days): 9.4%
Flea Survival (0.78 ng/mL in blood, exposure day 2): 100%
Flea Survival [19]: 100%
Oviposition Control [19]: 8.7%
Flea Survival [20]: 100%
Oviposition Control [20]: 3.0%
Flea Survival [21]: 100%
Oviposition Control [21]: 13.8%
Flea Survival [22]: 100%
Oviposition Control [22]: 12.5%
Flea Survival [23]: 100%
Oviposition Control [23]: 0%
Flea Survival [24]: 100%
Oviposition Control [24]: 18.5%
Oviposition Control (1.56 ng/mL in blood, arithmetic mean of exposure days): 21.1%
Flea Survival (1.56 ng/mL in blood, exposure day 2): 100%
Flea Survival [25]: 100%
Oviposition Control [25]: 0%
Flea Survival [26]: 99.4%
Oviposition Control [26]: 0%
Flea Survival [27]: 99.1%
Oviposition Control [27]: 17.3%
Flea Survival [28]: 93.9%
Oviposition Control [28]: 49.8%
Flea Survival [29]: 92.9%
Oviposition Control [29]: 30.1%
Flea Survival [30]: 90.3%
Oviposition Control [30]: 29.2%
Oviposition Control (3.13 ng/mL in blood, arithmetic mean of exposure days): 50.5%
Flea Survival (3.13 ng/mL in blood, exposure day 2): 100%
Flea Survival [31]: 100%
Oviposition Control [31]: 32.0%
Flea Survival [32]: 98.7%
Oviposition Control [32]: 35.7%
Flea Survival [33]: 97.8%
Oviposition Control [33]: 43.1%
Flea Survival [34]: 83.1%
Oviposition Control [34]: 70.5%
Flea Survival [35]: 79.5%
Oviposition Control [35]: 59.9%
Flea Survival [36]: 78.8%
Oviposition Control [36]: 62.0%
Oviposition Control (6.25 ng/mL in blood, arithmetic mean of exposure days): 80.6%
Flea Survival (6.25 ng/mL in blood, exposure day 2): 100%
Flea Survival [37]: 100%
Oviposition Control [37]: 82.6%
Flea Survival [38]: 97.5%
Oviposition Control [38]: 85.9%
Flea Survival [39]: 92.8%
Oviposition Control [39]: 81.3%
Flea Survival [40]: 85.0%
Oviposition Control [40]: 79.9%
Flea Survival [41]: 73.1%
Oviposition Control [41]: 67.5%
Flea Survival [42]: 69.7%
Oviposition Control [42]: 86.4%
Oviposition Control (12.5 ng/mL in blood, arithmetic mean of exposure days): 99.6%
Flea Survival (12.5 ng/mL in blood, exposure day 2): 100%
Flea Survival [43]: 100%
Oviposition Control [43]: 99.6%
Flea Survival [44]: 67.5%
Oviposition Control [44]: 100%
Flea Survival [45]: 38.9%
Oviposition Control [45]: 100%
Flea Survival [46]: 21.7%
Oviposition Control [46]: 98.9%
Flea Survival [47]: 17.9%
Oviposition Control [47]: 99.1%
Flea Survival [48]: 12.3%
Oviposition Control [48]: 100%
Oviposition Control (25.0 ng/mL in blood, arithmetic mean of exposure days): 100%
Flea Survival (25.0 ng/mL in blood, exposure day 2): 90.6%
Flea Survival [49]: 67.5%
Oviposition Control [49]: 100%
Flea Survival [50]: 31.9%
Oviposition Control [50]: 100%
Flea Survival [51]: 11.3%
Oviposition Control [51]: 100%
Flea Survival (25.0 ng/mL in blood, exposure day 8): 0%
Flea Survival (25.0 ng/mL in blood, exposure day 9): 0%
Flea Survival (25.0 ng/mL in blood, exposure day 10): 0%
Oviposition Control (50.0 ng/mL in blood, arithmetic mean of exposure days): 100%
Flea Survival (50.0 ng/mL in blood, exposure day 2): 78.1%
Flea Survival [52]: 20.0%
Oviposition Control [52]: 100%
Flea Survival [53]: 8.7%
Oviposition Control [53]: 100%
Flea Survival [54]: 1.2%
Oviposition Control [54]: 100%
Flea Survival (50.0 ng/mL in blood, exposure day 8): 0%
Flea Survival (50.0 ng/mL in blood, exposure day 9): 0%
Flea Survival (50.0 ng/mL in blood, exposure day 10): 0%
Pupal Development Control (arithmetic mean of exposure days): 4.0%
Larval Emergence (exposure day 3): yes
Pupal Development Control (exposure day 3): 9.1%
Larval Emergence (exposure day 4): yes
Pupal Development Control (exposure day 4): 4.5%
Larval Emergence (exposure day 5): yes
Pupal Development Control (exposure day 5): 1.4%
Larval Emergence (exposure day 8): yes
